From patent US11452710B1, “Micronutrient and plant extract composition and method of improving bone health” (priority 2022, dated 2022)

Tested on: alkaline phosphatase (ALP)
Settings: 0.1-5 μg/ml, 48 h at 37° C., n=4; compared to the control and to the most stimulating agents (boron line 10, MSM line 15)
Procedure: In vitro differentiation (alkaline phosphatase activity (ALP) and core-binding factor alpha 1 (Cbfa-1) as a marker) assay: Human osteoblasts (1×10^5 cells/well of a 96-well plate) in a 100 μl cell culture medium were exposed to select micronutrients and plant extracts (0.1-5 μg/ml) for 48 h at 37° C., and lysed with assay buffer. Subsequently, 5 mM p-nitrophenyl phosphate (pNPP), as a phosphate substrate for alkaline phosphates, was added into all experimental wells for 1 h, followed by a stop solution. The absorbance was measured at 450 nm within 5 min. using a microplate reader.

Row | Compound | alkaline phosphatase (ALP) activity level in human osteoblasts
1 | boron | most stimulating agents
2 | CS(C)(=O)=O [MSM, methylsulfonylmethane] | most stimulating agents
